In patent US7034208B1, “Ahas inhibiting herbicide resistant wheat and method for selection thereof” (BASF Aktiengellschaft, priority 1991, dated 2006):

Key:
Type in all cases: in vivo
[1] = system: F2 of intercrosses between wheat selections FS1-FS4; assay: Genetic Condition Studies Experiment 5, allelism (Table 3); details: 200 g/ha, after treatment
Source text: Experiment 5: Crosses and reciprocal crosses are made between the four mutant wheat selections. The F1 seed from these crosses is planted and the plants allowed to self. The F2 seed is harvested and used in this experiment to determine allelism of the four selections. Whole-flats are filled with Metro Mix 350™ and are sown with 100 seeds per cross (four rows with 25 seeds/row). In addition a row of susceptible Fidel is sown in each flat. Three sources from each cross are used. When the seedlings reach the Z12 stage, the flats are sprayed with PURSUIT™ at 200 g/ha. The PURSUIT™ solution is applied as previously described. […]

[2] = system: reciprocally crossed and selfed progeny of mutant wheat selections; assay: Genetic Condition Studies Experiment 2, reciprocal crosses and selfed progeny; details: 200 g/ha postemergence
Source text: Experiment 2: This experiment continues the evaluation of the mutant wheat selections by examining herbicide resistance in reciprocal crossed and selfed material. Reciprocal crosses are made between M3 plants representing each of the original four mutant selections and between these selections and Fidel. Progeny of these crosses as well as selfed progeny of the plants used in the crosses are planted in 6 inch azalea pots in Metro Mix 350™. Ten pots of each cross are planted with two seeds planted per pot. Ten days later, all of the selfed and reciprocally crossed progeny are sprayed postemergence with PURSUIT™ at 200 g/ha. Herbicide treatment is applied as described in Experiment 1. Plants are thinned to one plant per pot (by removing the weaker of the two plants per pot) one week after herbicide treatment. There is 100% germination of seed from the mutant reciprocal crosses and greater than 90% germination of seed from the selfed mutants.

[3] = system: wheat variety Fidel and resistant selections FS2 and FS4; assay: Preemergence Herbicide Tolerance; details: pre-emergence application; plant growth after four weeks; versus Fidel

With `CCc1cnc(C2=NC(C)(C(C)C)C(=O)N2)c(C(=O)O)c1` (centres unmarked) [PURSUIT, 5-ethyl-2-(4-isopropyl-4-methyl-5-oxo-2-imidazolin-2-yl)-nicotinic acid] the “Resist: number of plants resistant” value ([1]; F2 source (FS1/FS2)X-1) was 71, the “Suscept: number of plants susceptible” value ([1]; F2 source (FS1/FS2)X-1) was 1 and the “Resist: number of plants resistant” value ([1]; F2 source (FS1/FS2)X-2) was 85. The “Suscept: number of plants susceptible” value ([1]; F2 source (FS1/FS2)X-2) was 2, the “Resist: number of plants resistant” value ([1]; F2 source (FS1/FS2)X-3) was 74 and the “Suscept: number of plants susceptible” value ([1]; F2 source (FS1/FS2)X-3) was 1. For the same compound, the “Resist: number of plants resistant” value ([1]; F2 source (FS1/FS3)X-1) was 82, the “Suscept: number of plants susceptible” value ([1]; F2 source (FS1/FS3)X-1) was 0 and the “Resist: number of plants resistant” value ([1]; F2 source (FS1/FS3)X-2) was 92. For the same compound, the “Suscept: number of plants susceptible” value ([1]; F2 source (FS1/FS3)X-2) was 0, the “Resist: number of plants resistant” value ([1]; F2 source (FS1/FS3)X-3) was 93 and the “Suscept: number of plants susceptible” value ([1]; F2 source (FS1/FS3)X-3) was 0. The “Resist: number of plants resistant” value ([1]; F2 source (FS1/FS4)X-1) was 96, the “Suscept: number of plants susceptible” value ([1]; F2 source (FS1/FS4)X-1) was 0 and the “Resist: number of plants resistant” value ([1]; F2 source (FS1/FS4)X-2) was 90. The “Suscept: number of plants susceptible” value ([1]; F2 source (FS1/FS4)X-2) was 0, the “Resist: number of plants resistant” value ([1]; F2 source (FS1/FS4)X-3) was 93 and the “Suscept: number of plants susceptible” value ([1]; F2 source (FS1/FS4)X-3) was 2. For the same compound, the “Resist: number of plants resistant” value ([1]; F2 source (FS2/FS1)X-1) was 95, the “Suscept: number of plants susceptible” value ([1]; F2 source (FS2/FS1)X-1) was 0 and the “Resist: number of plants resistant” value ([1]; F2 source (FS2/FS1)X-2) was 91. For the same compound, the “Suscept: number of plants susceptible” value ([1]; F2 source (FS2/FS1)X-2) was 0, the “Resist: number of plants resistant” value ([1]; F2 source (FS2/FS1)X-3) was 97 and the “Suscept: number of plants susceptible” value ([1]; F2 source (FS2/FS1)X-3) was 0. The “Resist: number of plants resistant” value ([1]; F2 source (FS2/FS3)X-1) was 99, the “Suscept: number of plants susceptible” value ([1]; F2 source (FS2/FS3)X-1) was 0 and the “Resist: number of plants resistant” value ([1]; F2 source (FS2/FS3)X-2) was 87. For the same compound, the “Suscept: number of plants susceptible” value ([1]; F2 source (FS2/FS3)X-2) was 1, the “Resist: number of plants resistant” value ([1]; F2 source (FS2/FS3)X-3) was 92 and the “Suscept: number of plants susceptible” value ([1]; F2 source (FS2/FS3)X-3) was 0. The “Resist: number of plants resistant” value ([1]; F2 source (FS2/FS4)X-1) was 102, the “Suscept: number of plants susceptible” value ([1]; F2 source (FS2/FS4)X-1) was 0 and the “Resist: number of plants resistant” value ([1]; F2 source (FS2/FS4)X-2) was 97. For the same compound, the “Suscept: number of plants susceptible” value ([1]; F2 source (FS2/FS4)X-2) was 0, the “Resist: number of plants resistant” value ([1]; F2 source (FS2/FS4)X-3) was 97 and the “Suscept: number of plants susceptible” value ([1]; F2 source (FS2/FS4)X-3) was 1. For the same compound, the “Resist: number of plants resistant” value ([1]; F2 source (FS3/FS1)X-2) was 95, the “Suscept: number of plants susceptible” value ([1]; F2 source (FS3/FS1)X-2) was 0 and the “Resist: number of plants resistant” value ([1]; F2 source (FS3/FS1)X-3) was 97. The “Suscept: number of plants susceptible” value ([1]; F2 source (FS3/FS1)X-3) was 0, the “Resist: number of plants resistant” value ([1]; F2 source (FS3/FS1)X-5) was 94 and the “Suscept: number of plants susceptible” value ([1]; F2 source (FS3/FS1)X-5) was 1. For the same compound, the “Resist: number of plants resistant” value ([1]; F2 source (FS3/FS2)X-1) was 96, the “Suscept: number of plants susceptible” value ([1]; F2 source (FS3/FS2)X-1) was 0 and the “Resist: number of plants resistant” value ([1]; F2 source (FS3/FS2)X-2) was 94. For the same compound, the “Suscept: number of plants susceptible” value ([1]; F2 source (FS3/FS2)X-2) was 0, the “Resist: number of plants resistant” value ([1]; F2 source (FS3/FS2)X-3) was 96 and the “Suscept: number of plants susceptible” value ([1]; F2 source (FS3/FS2)X-3) was 0. The “Resist: number of plants resistant” value ([1]; F2 source (FS3/FS4)X-1) was 98, the “Suscept: number of plants susceptible” value ([1]; F2 source (FS3/FS4)X-1) was 0 and the “Resist: number of plants resistant” value ([1]; F2 source (FS3/FS4)X-2) was 96. For the same compound, the “Suscept: number of plants susceptible” value ([1]; F2 source (FS3/FS4)X-2) was 0, the “Resist: number of plants resistant” value ([1]; F2 source (FS3/FS4)X-3) was 96 and the “Suscept: number of plants susceptible” value ([1]; F2 source (FS3/FS4)X-3) was 0. For the same compound, the “Resist: number of plants resistant” value ([1]; F2 source (FS4/FS1)X-1) was 93, the “Suscept: number of plants susceptible” value ([1]; F2 source (FS4/FS1)X-1) was 1 and the “Resist: number of plants resistant” value ([1]; F2 source (FS4/FS1)X-2) was 91. For the same compound, the “Suscept: number of plants susceptible” value ([1]; F2 source (FS4/FS1)X-2) was 0, the “Resist: number of plants resistant” value ([1]; F2 source (FS4/FS1)X-3) was 94 and the “Suscept: number of plants susceptible” value ([1]; F2 source (FS4/FS1)X-3) was 1. For the same compound, the “Resist: number of plants resistant” value ([1]; F2 source (FS4/FS2)X-1) was 94, the “Suscept: number of plants susceptible” value ([1]; F2 source (FS4/FS2)X-1) was 0 and the “Resist: number of plants resistant” value ([1]; F2 source (FS4/FS2)X-2) was 95. For the same compound, the “Suscept: number of plants susceptible” value ([1]; F2 source (FS4/FS2)X-2) was 1, the “Resist: number of plants resistant” value ([1]; F2 source (FS4/FS2)X-3) was 95 and the “Suscept: number of plants susceptible” value ([1]; F2 source (FS4/FS2)X-3) was 0. For the same compound, the “Resist: number of plants resistant” value ([1]; F2 source (FS4/FS3)X-1) was 96, the “Suscept: number of plants susceptible” value ([1]; F2 source (FS4/FS3)X-1) was 0 and the “Resist: number of plants resistant” value ([1]; F2 source (FS4/FS3)X-2) was 100. The “Suscept: number of plants susceptible” value ([1]; F2 source (FS4/FS3)X-2) was 0, the “Resist: number of plants resistant” value ([1]; F2 source (FS4/FS3)X-3) was 94 and the “Suscept: number of plants susceptible” value ([1]; F2 source (FS4/FS3)X-3) was 0. The “Resist: number of plants resistant” value ([1]; Total of (FS1/FS2) sources) was 230, the “Suscept: number of plants susceptible” value ([1]; Total of (FS1/FS2) sources) was 4 and the “Resist: number of plants resistant” value ([1]; Total of (FS1/FS3) sources) was 267. For the same compound, the “Suscept: number of plants susceptible” value ([1]; Total of (FS1/FS3) sources) was 0, the “Resist: number of plants resistant” value ([1]; Total of (FS1/FS4) sources) was 279 and the “Suscept: number of plants susceptible” value ([1]; Total of (FS1/FS4) sources) was 2. For the same compound, the “Resist: number of plants resistant” value ([1]; Total of (FS2/FS1) sources) was 283, the “Suscept: number of plants susceptible” value ([1]; Total of (FS2/FS1) sources) was 0 and the “Resist: number of plants resistant” value ([1]; Total of (FS2/FS3) sources) was 278. For the same compound, the “Suscept: number of plants susceptible” value ([1]; Total of (FS2/FS3) sources) was 1, the “Resist: number of plants resistant” value ([1]; Total of (FS2/FS4) sources) was 296 and the “Suscept: number of plants susceptible” value ([1]; Total of (FS2/FS4) sources) was 1. For the same compound, the “Resist: number of plants resistant” value ([1]; Total of (FS3/FS1) sources) was 286, the “Suscept: number of plants susceptible” value ([1]; Total of (FS3/FS1) sources) was 1 and the “Resist: number of plants resistant” value ([1]; Total of (FS3/FS2) sources) was 286. The “Suscept: number of plants susceptible” value ([1]; Total of (FS3/FS2) sources) was 0, the “Resist: number of plants resistant” value ([1]; Total of (FS3/FS4) sources) was 290 and the “Suscept: number of plants susceptible” value ([1]; Total of (FS3/FS4) sources) was 0. For the same compound, the “Resist: number of plants resistant” value ([1]; Total of (FS4/FS1) sources) was 278, the “Suscept: number of plants susceptible” value ([1]; Total of (FS4/FS1) sources) was 2 and the “Resist: number of plants resistant” value ([1]; Total of (FS4/FS2) sources) was 284. The “Suscept: number of plants susceptible” value ([1]; Total of (FS4/FS2) sources) was 1, the “Resist: number of plants resistant” value ([1]; Total of (FS4/FS3) sources) was 290 and the “Suscept: number of plants susceptible” value ([1]; Total of (FS4/FS3) sources) was 0. The “damage to mutant crosses” value [2] was “None of the mutant crosses is damaged” and the “increased tolerance of FS2 and FS4” value [3] was “approximately 8 fold”.
